In patent US20250034216A1, “STEREOSELECTIVE COVALENT LIGANDS FOR ONCOGENIC AND IMMUNOLOGICAL PROTEINS” (The Scripps Research Institute, priority 2021, published 2025):

Assays:
Test in all cases: IA-DTB cysteine engagement
Format in all cases: binding
Details in all cases: 22Rv1 cells, 20 μM probe, 1 h, relative to DMSO
[1] = biological target: T1, ZNF346_C68 (Homo sapiens, UniProt Q9UL40)
T1 construct: endogenous in cells; host or cells: 22Rv1
T1 sequence (Q9UL40 1-294): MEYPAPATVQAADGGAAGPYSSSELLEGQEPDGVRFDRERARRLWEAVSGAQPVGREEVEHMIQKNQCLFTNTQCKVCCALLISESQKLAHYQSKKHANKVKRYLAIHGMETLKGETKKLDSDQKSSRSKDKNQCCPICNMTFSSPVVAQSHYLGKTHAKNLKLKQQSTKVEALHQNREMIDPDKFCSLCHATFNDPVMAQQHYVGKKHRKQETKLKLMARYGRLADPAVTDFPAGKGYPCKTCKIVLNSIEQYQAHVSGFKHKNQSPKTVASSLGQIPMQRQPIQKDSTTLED
In short: (§1)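 Read-out is TMT-based cysteine engagement, expressed as each reporter ion intensity divided by the average of the DMSO channels. Before that, probe-treated cell lysates were capped with IA-DTB, digested, enriched on streptavidin and TMT-tagged. PSMs with DMSO summed intensity <10,000 or DMSO CV >0.5 were excluded.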

[2] = biological target: T2, OCIAD1_C98 (Homo sapiens, UniProt Q9NX40)
T2 construct: endogenous in cells; host or cells: 22Rv1
T2 sequence (Q9NX40 1-245): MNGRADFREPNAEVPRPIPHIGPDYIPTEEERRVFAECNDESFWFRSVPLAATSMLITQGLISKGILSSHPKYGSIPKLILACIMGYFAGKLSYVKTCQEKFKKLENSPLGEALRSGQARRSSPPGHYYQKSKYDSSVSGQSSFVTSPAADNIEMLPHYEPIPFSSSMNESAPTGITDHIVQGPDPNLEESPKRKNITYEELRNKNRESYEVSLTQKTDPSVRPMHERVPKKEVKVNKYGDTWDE
In short: as §1

[3] = biological target: T3, MTMR12_C152 (Homo sapiens, UniProt Q9C0I1)
T3 construct: endogenous in cells; host or cells: 22Rv1
T3 sequence (Q9C0I1 1-747): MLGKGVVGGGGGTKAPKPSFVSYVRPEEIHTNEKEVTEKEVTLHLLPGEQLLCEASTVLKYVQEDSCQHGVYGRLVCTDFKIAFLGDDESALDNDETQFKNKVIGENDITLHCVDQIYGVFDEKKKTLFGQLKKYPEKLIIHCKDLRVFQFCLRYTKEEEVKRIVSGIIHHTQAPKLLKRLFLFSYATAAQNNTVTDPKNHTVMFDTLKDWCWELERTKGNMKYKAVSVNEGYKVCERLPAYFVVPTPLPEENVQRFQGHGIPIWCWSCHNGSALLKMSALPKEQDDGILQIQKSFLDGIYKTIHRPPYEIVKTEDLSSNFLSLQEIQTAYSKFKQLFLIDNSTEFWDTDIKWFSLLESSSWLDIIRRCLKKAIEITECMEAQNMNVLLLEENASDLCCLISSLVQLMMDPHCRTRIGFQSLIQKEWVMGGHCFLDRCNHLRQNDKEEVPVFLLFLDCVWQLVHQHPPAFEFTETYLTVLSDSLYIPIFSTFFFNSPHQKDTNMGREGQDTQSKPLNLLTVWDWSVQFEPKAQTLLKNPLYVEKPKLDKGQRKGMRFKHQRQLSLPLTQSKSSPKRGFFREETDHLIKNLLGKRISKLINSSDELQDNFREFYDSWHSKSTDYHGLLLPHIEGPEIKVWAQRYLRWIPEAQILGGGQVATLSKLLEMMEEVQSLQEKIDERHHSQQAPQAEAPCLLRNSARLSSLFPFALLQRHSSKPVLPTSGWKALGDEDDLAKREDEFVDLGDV
In short: as §1

Row | Structure (SMILES) | % engagement ZNF346_C68 [1] [%] | % engagement OCIAD1_C98 [2] [%] | % engagement MTMR12_C152 [3] [%]
1 | C=CC(=O)N1C[C@@H](c2ccc(Br)cc2)[C@H]1C(=O)Nc1cccc2cccnc12 [MY-1A, (2S,3R)-1-acryloyl-3-(4-bromophenyl)-N-(quinolin-8-yl)azetidine-2-carboxamide] | 95.5 | 26 | 40.5
2 | C=CC(=O)N1C[C@H](c2ccc(Br)cc2)[C@@H]1C(=O)Nc1cccc2cccnc12 [MY-1B, (2R,3S)-1-acryloyl-3-(4-bromophenyl)-N-(quinolin-8-yl)azetidine-2-carboxamide] | 37 | 19 | 31
3 | C=CC(=O)N1C[C@H](c2ccc(Br)cc2)[C@H]1C(=O)Nc1cccc2cccnc12 [MY-3A, (2S,3S)-1-acryloyl-3-(4-bromophenyl)-N-(quinolin-8-yl)azetidine-2-carboxamide] | 14 | 12.5 | 12
4 | C=CC(=O)N1C[C@H](c2ccc(Br)cc2)[C@H]1C(=O)Nc1cccc2cccnc12 [MY-3B, (2S,3S)-1-acryloyl-3-(4-bromophenyl)-N-(quinolin-8-yl)azetidine-2-carboxamide] | 45.25 | 72.5 | 91.5
